In patent publication US20260365670A1, “EGFR INHIBITORS AND USES THEREOF” (DIZAL (JIANGSU) PHARMACEUTICAL CO., LTD., priority 2022, published 2026):
pIC50: −log10 of the molar value. Where two headings read alike, the source gives them in different places.

Columns and labels:
EGFR (d746-750 C797S) = target: T1, EGFR (d746-750 C797S) (Homo sapiens, UniProt P00533, C797S/DEL746-750); assay: Inhibition of EGFR (d746-750 C797S) biochemical enzymatic activity (HTRF); settings: 1 mM ATP; for IC50: EGFR Del19-C797S, 1 h, room temperature, read-out: IC50 (nM) @Del19-C797S
T1 construct: purchased signalchem
Outline: (§1)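 Compounds at varying concentrations were tested against each EGFR form using 1 mM ATP and 1 μM TK Substrate-biotin. Reactions ran 1 h at room temperature in Mg2+/Mn2+ buffer with CHAPS, DTT and 0.5% DMSO. Time-resolved fluorescence gave IC50 by four-parameter fit.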

EGFR Exon19Del/T790M = target: T2, EGFR Exon19Del/T790M (Homo sapiens, UniProt P00533, DEL746-750/T790M); assay: Inhibition of EGFR Exon19Del/T790M biochemical enzymatic activity (HTRF); settings: 1 mM ATP; for IC50: EGFR Del19-T790M, 1 h, room temperature, read-out: IC50 (nM) @Del19-T790M
T2 construct: purchased Carna Bio
T2 sequence (P00533 with tags, fused parts or gaps DEL746-750/T790M limits assumed): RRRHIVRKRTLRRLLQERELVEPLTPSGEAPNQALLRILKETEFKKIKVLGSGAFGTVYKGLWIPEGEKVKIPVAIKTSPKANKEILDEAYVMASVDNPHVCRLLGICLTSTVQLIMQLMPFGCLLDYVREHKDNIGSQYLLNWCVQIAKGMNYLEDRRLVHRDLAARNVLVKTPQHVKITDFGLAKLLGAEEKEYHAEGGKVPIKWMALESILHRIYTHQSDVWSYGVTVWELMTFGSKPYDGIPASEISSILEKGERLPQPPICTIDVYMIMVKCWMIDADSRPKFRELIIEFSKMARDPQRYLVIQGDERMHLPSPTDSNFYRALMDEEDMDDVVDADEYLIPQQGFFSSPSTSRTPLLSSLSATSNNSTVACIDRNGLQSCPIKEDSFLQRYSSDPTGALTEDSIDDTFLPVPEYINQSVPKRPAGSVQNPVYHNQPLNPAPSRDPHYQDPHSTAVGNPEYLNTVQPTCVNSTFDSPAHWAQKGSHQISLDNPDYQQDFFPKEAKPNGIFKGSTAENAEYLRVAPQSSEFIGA
Outline: as §1

EGFR L858R = target: T3, EGFR L858R (Homo sapiens, UniProt P00533, L858R); assay: Inhibition of EGFR L858R biochemical enzymatic activity (HTRF); settings: 1 mM ATP; for IC50: 1 h, room temperature, read-out: IC50 (nM) @L858R
T3 construct: purchased Carna Bio
T3 sequence (P00533 25-1210 L858R): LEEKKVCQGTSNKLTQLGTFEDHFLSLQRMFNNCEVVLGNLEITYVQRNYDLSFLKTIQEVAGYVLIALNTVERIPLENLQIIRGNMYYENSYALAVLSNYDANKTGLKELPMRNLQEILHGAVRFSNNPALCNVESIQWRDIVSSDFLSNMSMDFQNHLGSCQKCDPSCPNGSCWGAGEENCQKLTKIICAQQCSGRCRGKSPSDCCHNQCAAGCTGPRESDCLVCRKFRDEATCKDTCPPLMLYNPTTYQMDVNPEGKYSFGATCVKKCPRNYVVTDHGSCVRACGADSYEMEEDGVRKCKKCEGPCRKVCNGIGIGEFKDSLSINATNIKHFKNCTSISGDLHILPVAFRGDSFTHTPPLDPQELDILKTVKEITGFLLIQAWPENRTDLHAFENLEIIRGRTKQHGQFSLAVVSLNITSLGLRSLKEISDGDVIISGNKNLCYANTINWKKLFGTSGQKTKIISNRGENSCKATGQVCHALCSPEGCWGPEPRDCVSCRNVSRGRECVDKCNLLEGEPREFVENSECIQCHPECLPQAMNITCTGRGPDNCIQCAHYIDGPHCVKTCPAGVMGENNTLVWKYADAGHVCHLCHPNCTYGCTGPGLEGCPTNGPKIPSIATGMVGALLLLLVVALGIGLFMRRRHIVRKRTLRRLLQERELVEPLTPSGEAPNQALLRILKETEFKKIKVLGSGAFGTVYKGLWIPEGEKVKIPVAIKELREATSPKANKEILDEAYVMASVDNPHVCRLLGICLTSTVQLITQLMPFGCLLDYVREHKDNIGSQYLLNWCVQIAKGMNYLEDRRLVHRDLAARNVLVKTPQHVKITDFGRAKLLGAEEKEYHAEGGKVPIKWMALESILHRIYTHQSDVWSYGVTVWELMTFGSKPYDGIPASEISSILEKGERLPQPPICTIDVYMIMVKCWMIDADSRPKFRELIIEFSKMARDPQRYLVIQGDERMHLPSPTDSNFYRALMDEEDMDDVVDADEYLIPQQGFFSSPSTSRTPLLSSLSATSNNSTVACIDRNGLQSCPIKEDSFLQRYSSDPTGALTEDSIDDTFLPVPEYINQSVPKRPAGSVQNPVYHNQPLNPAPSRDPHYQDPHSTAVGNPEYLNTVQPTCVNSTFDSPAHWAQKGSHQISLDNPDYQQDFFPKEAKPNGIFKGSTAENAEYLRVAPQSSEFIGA
Outline: as §1

EGFR wild type = target: T4, EGFR wild type (Homo sapiens, UniProt P00533); assay: Inhibition of EGFR wild type biochemical enzymatic activity (HTRF); settings: 1 mM ATP; for IC50: EGFR WT, 1 h, room temperature, read-out: IC50 (nM) @WT
T4 construct: purchased Carna Bio
Outline: as §1

A-431 = assay: Cell proliferation assay, A-431 cells (GI50, Table 6); type: cell-based
EGFR (C797S L858R) = target: T5, EGFR (C797S L858R) (Homo sapiens, UniProt P00533, C797S/L858R); assay: Inhibition of EGFR (C797S L858R) biochemical enzymatic activity (HTRF); settings: 1 mM ATP; for IC50: EGFR L858-C797S, 1 h, room temperature, read-out: IC50 (nM) @L858-C797S
T5 construct: purchased signalchem
T5 sequence (P00533 25-1210 C797S/L858R): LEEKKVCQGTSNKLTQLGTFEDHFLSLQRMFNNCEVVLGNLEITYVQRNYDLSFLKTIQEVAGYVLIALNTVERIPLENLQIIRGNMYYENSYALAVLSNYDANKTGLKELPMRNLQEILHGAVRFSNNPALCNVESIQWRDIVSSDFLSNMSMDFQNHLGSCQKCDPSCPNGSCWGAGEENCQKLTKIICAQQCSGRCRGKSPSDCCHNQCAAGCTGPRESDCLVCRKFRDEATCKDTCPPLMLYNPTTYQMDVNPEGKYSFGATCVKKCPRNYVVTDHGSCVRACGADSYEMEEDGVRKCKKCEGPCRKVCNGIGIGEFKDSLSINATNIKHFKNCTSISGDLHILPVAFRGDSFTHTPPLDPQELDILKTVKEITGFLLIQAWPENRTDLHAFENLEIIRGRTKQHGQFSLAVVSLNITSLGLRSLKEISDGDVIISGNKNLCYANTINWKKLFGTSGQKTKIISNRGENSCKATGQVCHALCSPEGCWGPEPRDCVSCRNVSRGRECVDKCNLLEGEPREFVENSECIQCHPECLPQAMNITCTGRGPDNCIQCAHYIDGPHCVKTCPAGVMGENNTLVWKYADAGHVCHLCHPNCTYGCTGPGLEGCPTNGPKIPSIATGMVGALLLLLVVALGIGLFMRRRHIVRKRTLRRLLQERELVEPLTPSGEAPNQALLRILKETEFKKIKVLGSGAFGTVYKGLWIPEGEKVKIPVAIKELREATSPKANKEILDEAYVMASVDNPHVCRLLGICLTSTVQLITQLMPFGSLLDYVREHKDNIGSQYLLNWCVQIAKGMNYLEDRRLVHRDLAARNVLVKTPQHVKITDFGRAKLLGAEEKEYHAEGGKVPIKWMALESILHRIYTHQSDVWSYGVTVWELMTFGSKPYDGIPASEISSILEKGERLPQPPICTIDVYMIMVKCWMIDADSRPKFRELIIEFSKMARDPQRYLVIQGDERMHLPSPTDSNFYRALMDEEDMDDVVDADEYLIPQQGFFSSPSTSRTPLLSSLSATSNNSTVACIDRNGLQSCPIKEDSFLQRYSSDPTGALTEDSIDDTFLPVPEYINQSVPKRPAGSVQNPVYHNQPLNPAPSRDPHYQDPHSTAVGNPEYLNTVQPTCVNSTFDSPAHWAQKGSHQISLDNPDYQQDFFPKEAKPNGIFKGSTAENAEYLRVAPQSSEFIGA
Outline: as §1

[1] = system: Ba/F3 cells expressing EGFR mutations; assay: Cell proliferation assay, Ba/F3 cells expressing EGFR mutations (CellTiter-Glo, 72 hours); type: cell-based
Outline: (§2)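 GI50 is the concentration giving 50% proliferation inhibition. Growth for this was normalised to a baseline viability reading taken when compound was added, and to DMSO wells. PC-9 (500 cells/well) and mutant-EGFR Ba/F3 (5000 cells/well) are treated after overnight seeding in RPMI1640-based medium.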

EGFR[T790M/C797S/L858R] = target: T6, EGFR[T790M/C797S/L858R] (Homo sapiens, UniProt P00533, C797S/L858R/T790M); assay: Inhibition of EGFR[T790M/C797S/L858R] biochemical enzymatic activity (HTRF); settings: 1 mM ATP; for IC50: EGFR T790M-C797S-L858R, 1 h, room temperature, read-out: IC50 (nM) @T790M- C797S - L858R
T6 construct: purchased Carna Bio
Outline: as §1

PC-9 = assay: Cell proliferation assay, PC-9 cells (CellTiter-Glo, 72 hours); type: cell-based; settings: PC9 cells, read-out: GI50 PC9
Outline: as §2

EGFR L858R/T790M = target: T7, EGFR L858R/T790M (Homo sapiens, UniProt P00533, L858R/T790M); assay: Inhibition of EGFR L858R/T790M biochemical enzymatic activity (HTRF); settings: 1 mM ATP; for IC50: EGFR L858R-T790M, 1 h, room temperature, read-out: IC50 (nM) @L858R-T790M
T7 construct: purchased Carna Bio
T7 sequence (P00533 25-1210 T790M/L858R): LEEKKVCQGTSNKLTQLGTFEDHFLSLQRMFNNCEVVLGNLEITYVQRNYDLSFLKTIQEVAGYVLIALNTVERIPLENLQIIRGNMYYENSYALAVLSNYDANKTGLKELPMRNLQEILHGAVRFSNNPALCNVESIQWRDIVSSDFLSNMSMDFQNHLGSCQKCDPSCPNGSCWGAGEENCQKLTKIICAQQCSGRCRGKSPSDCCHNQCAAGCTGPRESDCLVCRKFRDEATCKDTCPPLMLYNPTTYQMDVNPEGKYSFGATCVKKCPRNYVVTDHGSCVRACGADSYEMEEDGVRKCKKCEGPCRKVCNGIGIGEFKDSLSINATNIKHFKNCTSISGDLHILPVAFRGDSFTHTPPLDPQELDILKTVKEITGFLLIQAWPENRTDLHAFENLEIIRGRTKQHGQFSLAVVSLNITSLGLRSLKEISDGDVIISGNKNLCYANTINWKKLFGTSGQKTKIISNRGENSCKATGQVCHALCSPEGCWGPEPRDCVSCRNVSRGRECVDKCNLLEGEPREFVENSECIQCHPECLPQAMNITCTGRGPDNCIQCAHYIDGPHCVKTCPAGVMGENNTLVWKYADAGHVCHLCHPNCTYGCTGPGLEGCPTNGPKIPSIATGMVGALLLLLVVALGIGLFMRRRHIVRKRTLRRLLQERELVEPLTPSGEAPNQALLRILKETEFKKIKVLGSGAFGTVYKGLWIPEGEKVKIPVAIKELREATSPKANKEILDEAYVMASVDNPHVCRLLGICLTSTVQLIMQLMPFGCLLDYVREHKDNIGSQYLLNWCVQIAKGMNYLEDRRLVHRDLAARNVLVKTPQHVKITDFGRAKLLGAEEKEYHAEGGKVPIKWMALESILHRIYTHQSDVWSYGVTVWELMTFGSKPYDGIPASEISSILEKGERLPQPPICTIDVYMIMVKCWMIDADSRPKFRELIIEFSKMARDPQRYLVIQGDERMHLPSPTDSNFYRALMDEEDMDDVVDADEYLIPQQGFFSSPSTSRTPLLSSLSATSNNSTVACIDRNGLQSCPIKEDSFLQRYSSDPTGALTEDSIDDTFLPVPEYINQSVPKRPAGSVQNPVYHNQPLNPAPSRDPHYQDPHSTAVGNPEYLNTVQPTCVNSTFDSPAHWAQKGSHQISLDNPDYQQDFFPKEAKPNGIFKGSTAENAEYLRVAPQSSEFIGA
Outline: as §1

[2] = target: T8, EGFR[T790M/C797S/d746-750] (Homo sapiens, UniProt P00533, C797S/DEL746-750/T790M); assay: Inhibition of EGFR[T790M/C797S/d746-750] biochemical enzymatic activity (HTRF); settings: for IC50: EGFR T790M-C797S-Del19, 1 mM ATP, 1 h, room temperature, read-out: IC50 (nM) @T790M - C797S - Del19
T8 construct: purchased Carna Bio
Outline: as §1

EGFR Exon19Del = target: T9, EGFR Exon19Del (Homo sapiens, UniProt P00533, DEL746-750); assay: Inhibition of EGFR Exon19Del biochemical enzymatic activity (HTRF); settings: read-out: IC50 @Del19
T9 construct: purchased Carna Bio
T9 sequence (P00533 with tags, fused parts or gaps DEL746-750 limits assumed): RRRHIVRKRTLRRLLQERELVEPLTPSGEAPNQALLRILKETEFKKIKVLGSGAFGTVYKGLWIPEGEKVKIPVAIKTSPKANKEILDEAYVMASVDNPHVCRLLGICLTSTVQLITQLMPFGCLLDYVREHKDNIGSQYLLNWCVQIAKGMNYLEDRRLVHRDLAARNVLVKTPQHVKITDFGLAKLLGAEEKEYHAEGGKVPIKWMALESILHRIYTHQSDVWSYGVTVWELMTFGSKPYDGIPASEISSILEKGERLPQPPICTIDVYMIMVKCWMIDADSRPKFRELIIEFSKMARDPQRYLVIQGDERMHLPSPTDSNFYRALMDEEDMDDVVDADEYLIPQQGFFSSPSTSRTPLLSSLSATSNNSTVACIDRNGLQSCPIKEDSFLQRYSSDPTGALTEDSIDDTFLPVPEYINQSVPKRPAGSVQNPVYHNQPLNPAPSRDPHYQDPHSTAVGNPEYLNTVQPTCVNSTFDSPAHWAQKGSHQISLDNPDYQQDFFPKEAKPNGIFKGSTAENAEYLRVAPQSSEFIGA
Outline: as §1

[3] = Homo sapiens, A-431, A-431 cells
[4] = Mus musculus, BaF3, 72 h, BaF3 cells, EGFR DEL19 - C797S, read-out: GI50 DEL19 - C797S/BaF3
[5] = Mus musculus, BaF3, 72 h, BaF3 cells, EGFR DEL19 - T790-C797S, read-out: GI50 DEL19 - T790-C797S/BaF3
[6] = Mus musculus, BaF3, 72 h, BaF3 cells, EGFR L858R - C797S, read-out: GI50 L858R - C797S/BaF3
[7] = Mus musculus, BaF3, 72 h, BaF3 cells, EGFR L858R - T790-C797S, read-out: GI50 L858R - T790-C797S/BaF3
[8] = Mus musculus, BaF3, 72 h, BaF3 cells, EGFR L858R - T790M, read-out: GI50 L858R - T790M/BaF3
[9] = Mus musculus, BaF3, 72 h, BaF3 cells, EGFR L858R, read-out: GI50 L858R/BaF3
[10] = Mus musculus, BaF3, 72 h, EGFR DEL19 - T790M, read-out: GI50 DEL19 - T790M
[11] = EGFR Del19, 1 mM ATP, 1 h, room temperature

IC50 (EGFR (d746-750 C797S)) [nM]	IC50 (EGFR Exon19Del/T790M) [nM]	IC50 (EGFR L858R) [nM]	IC50 (EGFR wild type) [nM]	GI50 (A-431; [3]) [nM]	IC50 (EGFR (C797S L858R)) [nM]	GI50 [1, 4] [nM]	GI50 [1, 5] [nM]	GI50 [1, 6] [nM]	GI50 [1, 7] [nM]	GI50 [1, 8] [nM]	GI50 [1, 9] [nM]	GI50 [1, 10] [nM]	IC50 (EGFR[T790M/C797S/L858R]) [nM]	GI50 (PC-9; Homo sapiens, PC-9, 72 h) [nM]	IC50 (EGFR L858R/T790M) [nM]	IC50 [2] [nM]	pIC50 (EGFR Exon19Del; [11])	other results	Structure (SMILES)
8.1	3.3	463	> 5000	1510	23	4.3	20	38	32	80	16	12	280	57	1910	2.5	7.64		Cn1ncc2c1OCCN1CC3CCC(C3)(C1)n1c(nc3cc(F)ccc31)NC(=O)c1cc-2c(=O)n(C)c1 (stereo not drawn) [Example A117B, 6-fluoro-15,21-dimethyl-23-oxa-2,9,11,15,20,21,26-heptaazaheptacyclo[24.4.1.1^{1,28}.1^{13,17}.0^{2,10}.0^{3,8}.0^{18,22}]tritriaconta-3,5,7,9,13,17(33),18(22),19-octaene-12,16-dione]
																		pIC50 (EGFR (d746-750 C797S); EGFR (d746-750 C797S), 1 h at room temperature, read-out: IC50 @Del19-C797S): 5.69; pIC50 (EGFR Exon19Del/T790M; EGFR Exon19Del/T790M, 1 h at room temperature, read-out: IC50 @Del19-T790M): 7.00; pIC50 (EGFR L858R; 1 h at room temperature, read-out: IC50 @L858R): < 5.30; pIC50 (EGFR wild type; EGFR wild type, 1 h at room temperature, read-out: IC50 @WT): < 5.30; GI50 (A-431; A-431 cells): 7020 nM; pIC50 (EGFR (C797S L858R); EGFR (C797S L858R), 1 h at room temperature, read-out: IC50 @L858-C797S): < 5.30; GI50 ([1]; BaF3 cells, EGFR DEL19 - C797S, read-out: GI50 DEL19 - C797S/BaF3): 102 nM; GI50 ([1]; BaF3 cells, EGFR DEL19 - T790-C797S, read-out: GI50 DEL19 - T790-C797S/BaF3): 169 nM; GI50 ([1]; BaF3 cells, EGFR L858R - C797S, read-out: GI50 L858R - C797S/BaF3): 180 nM; GI50 ([1]; BaF3 cells, EGFR L858R - T790-C797S, read-out: GI50 L858R - T790-C797S/BaF3): 41 nM; GI50 ([1]; BaF3 cells, EGFR L858R - T790M, read-out: GI50 L858R - T790M/BaF3): 191 nM; GI50 ([1]; BaF3 cells, EGFR L858R, read-out: GI50 L858R/BaF3): 176 nM; GI50 ([1]; EGFR DEL19 - T790M, read-out: GI50 DEL19 - T790M): 363 nM; pIC50 (EGFR[T790M/C797S/L858R]; EGFR[T790M/C797S/L858R], 1 h at room temperature, read-out: IC50 @T790M- C797S - L858R): < 5.30; GI50 (PC-9): 311 nM; pIC50 (EGFR L858R/T790M; EGFR L858R/T790M, 1 h at room temperature, read-out: IC50 @L858R-T790M): < 5.30; pIC50 ([2]; EGFR[T790M/C797S/d746-750], 1 mM ATP, 1 h at room temperature, read-out: IC50 @T790M - C797S - Del19): 7.43; pIC50 (EGFR Exon19Del; EGFR Exon19Del, 1 mM ATP, 1 h at room temperature): < 5.30	Cc1cc2cc(n1)-c1cnn(C)c1OCCN1CC3CCC(C3)(C1)n1c(nc3ccc(N4CCC5(CCN(C)C5)CC4)cc31)NC2=O (single isomer, unassigned) [Example B52A]
3.1	7.9	16	219	489	9.8	1.7	15	23	27	34	21	16	10	15	11	7.6	8.33		C[C@@H]1CCCOc2ccccc2-c2cc(cn(C)c2=O)C(=O)Nc2nc3ccc(N4CCN(C)CC4)cc3n2C1 [Example A109, (12R)-12,27-dimethyl-17-(4-methylpiperazin-1-yl)-8-oxa-14,21,23,27-tetraazapentacyclo[23.3.1.0^{2,7}.0^{14,22}.0^{15,20}]nonacosa-1(29),2(7),3,5,15,17,19,21,25-nonaene-24,28-dione]
